# Patent US11517604B2, “Method for preparing Plectranthus amboinicus fraction having anti-arthritis activity” (ONENESS BIOTECH CO., priority 2011, dated 2022)
# Columns and labels:
# Type in all cases: cell-based, human
# [1] = test system: PHA-induced PBMC proliferation; experiment: Inhibition of PHA-induced PBMC proliferation (MTT assay); conditions: positive control 0.1 uM; PHA 5 μg/mL, 3 days; PHA alone 0.634, without PHA 0.245
# Description: (§1) The peripheral blood mononuclear cells (PBMCs) from the blood of healthy adult donors were diluted and isolated by Ficoll-Paque (FP) gradient centrifugation (Amersham Biosciences) at 600 g for 30 min at room temperature. The isolated PBMCs were washed by phosphate buffered saline, re-suspended in 10% heat inactivated fetal bovine serum (FBS), and seeded in 96-well culture plate with a density of […] cells per well for assessing the anti-arthritis activity of the extracts as described herein.
# PHA-induced PBMC proliferation was used as a technical platform for the assessment of anti-inflammation efficacy of various extracts of the present invention. Human PBMCs were co-cultured with PHA at a final concentration of 5 μg/mL and various extracts of Plectranthus amboinicus at a final concentration of 0˜90 μg/mL for 3 days. PBMCs treated by dexamethasone (DEX) before stimulation by PHA (5 μg/mL) were also included in the experiment as positive control samples. After cells were incubated for 3 days at 37° C. with humid air containing 5% CO2, MTT (methyl thiazolyl tetrazolium, MTT) assays were carried out to evaluate the proliferation rate of PBMCs. […] The absorbance of each well was detected by a photoelectric colorimeter at the wavelength of 540 nm. […] Three independent experiments were performed, and the data determined by MTT assays were further expressed as IC50.
# [2] = test system: TNF-α; experiment: PHA-induced TNF-α release from PBMCs (ELISA); conditions: PHA + 0.1uM DEX; PHA alone 4031.3, without PHA 271.6
# Description: as §1
# (§2) PHA-induced PBMC proliferation was used as a technical platform for the assessment of anti-inflammation efficacy of various extracts of the present invention. Human PBMCs were co-cultured with PHA at a final concentration of 5 μg/mL and various extracts of Plectranthus amboinicus at a final concentration of 0˜90 μg/mL for 3 days. […] The absorbance of each well was detected by a photoelectric colorimeter at the wavelength of 540 nm. […] Three independent experiments were performed, and the data determined by MTT assays were further expressed as IC50.
# (§3) On Day 3, cell supernatant was collected, divided, and stored at −20° C. until analysis. The amounts of TNF-α, interleukin IL-6, IFN-γ, and IL-5 in the supernatant were measured using Quantikine ELISA kits (R & D Systems, Minneapolis, Minn.) following the manufacturer's instruction.
# [3] = test system: IL-6; experiment: PHA-induced IL-6 release from PBMCs (ELISA); conditions: PHA + 0.1uM DEX; PHA alone 703.0, without PHA 157
# Description: as §1, §2, §3
# [4] = test system: IFN-γ; experiment: PHA-induced IFN-γ release from PBMCs (ELISA); conditions: PHA + 0.1uM DEX; PHA alone 176.8, without PHA 25.0
# Description: as §1, §2, §3
# [5] = test system: IL-5; experiment: PHA-induced IL-5 release from PBMCs (ELISA); conditions: PHA + 0.1uM DEX; PHA alone 161.9, without PHA 37.0
# Description: as §1, §2, §3
structure (smiles),measurement,setting,value
"C[C@@H]1C[C@H]2[C@@H]3CCC4=CC(=O)C=C[C@]4(C)[C@@]3(F)[C@@H](O)C[C@]2(C)[C@@]1(O)C(=O)CO [DEX, dexamethasone]","PHA-induced PBMC proliferation, MTT assay data (absorbance 540 nm)",[1],0.242
same,Concentration of TNF-α released from PBMCs,[2],272.5 pg/mL
same,Concentration of IL-6 released from PBMCs,[3],157 pg/mL
same,Concentration of IFN-γ released from PBMCs,[4],25 pg/mL
same,Concentration of IL-5 released from PBMCs,[5],37 pg/mL
